In the supplement of paper PMC10307832:

Columns and labels:
Assay in all cases: relative viability (nuclei count vs DMSO), 5 days (fraction); higher = more cells survive
Pemetrexed + Phenformin = compound: Nc1nc2[nH]cc(CCc3ccc(C(=O)N[C@@H](CCC(=O)O)C(=O)O)cc3)c2c(=O)[nH]1 [Pemetrexed] + N=C(N)NC(=N)NCCc1ccccc1 [Phenformin] (partner 250 µM)
How it was run: (§1)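 Each reported value is a median over duplicate plates. It expresses relative viability: treated-well nuclei count divided by vehicle-well nuclei count. Lung cancer cell lines in 1536-well plates were dosed by pin tool a day after seeding, alone with one drug or with a fixed anchor-drug dose plus five library-drug doses (not always all listed) in √10 steps, and nuclei were counted after 5 days.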

Idelalisib + Pictilisib = compound: CC[C@H](Nc1ncnc2[nH]cnc12)c1nc2cccc(F)c2c(=O)n1-c1ccccc1 [Idelalisib] + CS(=O)(=O)N1CCN(Cc2cc3nc(-c4cccc5[nH]ncc45)nc(N4CCOCC4)c3s2)CC1 [Pictilisib] (partner 1 µM)
How it was run: as §1

Pemetrexed + Bortezomib = compound: Nc1nc2[nH]cc(CCc3ccc(C(=O)N[C@@H](CCC(=O)O)C(=O)O)cc3)c2c(=O)[nH]1 [Pemetrexed] + CC(C)C[C@H](NC(=O)[C@H](Cc1ccccc1)NC(=O)c1cnccn1)B(O)O [Bortezomib] (partner 0.002 µM)
How it was run: as §1

Pemetrexed + AZD7762 = compound: Nc1nc2[nH]cc(CCc3ccc(C(=O)N[C@@H](CCC(=O)O)C(=O)O)cc3)c2c(=O)[nH]1 [Pemetrexed] + NC(=O)Nc1cc(-c2cccc(F)c2)sc1C(=O)N[C@H]1CCCNC1 [AZD7762] (partner 0.2 µM)
How it was run: as §1

Cell Line	relative viability (Pemetrexed + Phenformin; first compound 0.002 µM)	relative viability (Pemetrexed + Phenformin; first compound 0.006325 µM)	relative viability (Pemetrexed + Phenformin; first compound 0.02 µM)	relative viability (Pemetrexed + Phenformin; first compound 0.06325 µM)	relative viability (Pemetrexed + Phenformin; first compound 0.2 µM)	relative viability (Idelalisib + Pictilisib; first compound 0.04 µM)	relative viability (Idelalisib + Pictilisib; first compound 0.1265 µM)	relative viability (Idelalisib + Pictilisib; first compound 0.4 µM)	relative viability (Idelalisib + Pictilisib; first compound 1.265 µM)	relative viability (Idelalisib + Pictilisib; first compound 4 µM)	relative viability (Pemetrexed + Bortezomib; first compound 0.002 µM)	relative viability (Pemetrexed + Bortezomib; first compound 0.006325 µM)	relative viability (Pemetrexed + Bortezomib; first compound 0.02 µM)	relative viability (Pemetrexed + Bortezomib; first compound 0.06325 µM)	relative viability (Pemetrexed + Bortezomib; first compound 0.2 µM)	relative viability (Pemetrexed + AZD7762; first compound 0.002 µM)	relative viability (Pemetrexed + AZD7762; first compound 0.006325 µM)	relative viability (Pemetrexed + AZD7762; first compound 0.02 µM)	relative viability (Pemetrexed + AZD7762; first compound 0.06325 µM)	relative viability (Pemetrexed + AZD7762; first compound 0.2 µM)
ChaGo-K-1	0.497	0.495	0.507	0.332	0.217	0.788	0.608	0.797	0.796	0.791	1.09	1.11	1.05	0.332	0.307	0.902	0.803	0.834	0.27	0.238
EBC-1						0.399	0.42	0.343	0.368	0.209	0.57	0.5	0.642	0.54	0.542					
EKVX	0.246	0.284	0.26	0.254	0.206	0.498	0.456	0.384	0.356	0.447	0.939	0.946	0.971	0.979	0.553	0.589	0.645	0.636	0.549	0.654
EMC-BAC-2	0.481	0.523	0.615	0.58	0.423	0.563	0.569	0.475	0.59	0.492	0.993	0.922	1.11	1.06	1.04	1.1	0.944	1.14	0.948	0.69
EPLC-272H	0.242	0.315	0.333	0.292	0.267	0.299	0.313	0.236	0.402	0.316	0.682	0.888	1.16	0.848	0.926	0.117	0.206	0.259	0.176	0.169
H3255	0.349	0.355	0.414	0.418	0.414	0.416	0.442	0.44	0.436	0.404		0.834	0.933	0.692	0.572	0.798	0.916	0.928	0.79	0.571
HARA	0.402	0.447	0.508	0.297	0.137	0.376	0.409	0.287	0.403	0.266	0.567	1.12	1.17	0.846	0.453	0.272	0.302	0.582	0.259	0.128
HCC-15	0.439	0.455	0.531	0.372	0.21	0.762	0.748	0.662	0.866	0.728	0.916	0.995	1.12	1.02	0.562	1.11	1.13	1.48	0.903	0.448
HCC-44	0.129	0.23	0.187	0.224	0.207	0.679	0.646	0.526	0.59	0.591	0.859	0.934	1.03	0.888	0.681	0.928	1.01	0.991	1.03	0.944
